Measurements reported in patent publication US9856230B2 (University of Sunderland, priority 2012, dated 2018).
Like-named read-outs stand apart in the source and are kept apart here.

How the values were obtained:
[1] = tested on: HPV-16 immortalized keratinocyte cell line (CCD-1106 KERTr); assay: cells; assay type: cell-based; conditions: Homo sapiens;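 further: growth inhibition read as spectrophotometric formazan colour from mitochondrial dehydrogenase cleavage of MTT, proportional to viable cell number, modelling psoriatic hyperproliferation, lower values mean stronger antiproliferative activity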
Text: The assay is based on the ability of a mitochondrial dehydrogenase enzyme to cleave the tetrazolium rings of the yellow MTT to form dark blue formazan crystals (MTT reaction scheme). These crystals are mostly impermeable to cell membranes and, consequently, they accumulate in healthy viable cells. The addition of detergent solubilizes the cells, which results in the liberation of purple formazan crystals. The number of viable cells is directly proportional to the level of purple formazan produced. This colour change can be measured by a spectrophotometer enabling quantification of changes in cellular proliferation. Compound activity measured by the MTT assay (or other proliferation related assay) may be given as a GI50 value.
A human papilloma virus-16 (HPV-16) immortalized keratinocyte cell line (CCD-1106 KERTr) was used in the MTT cell viability assay.
Antiproliferative activity is indicated by the MTT GI50 (μM), where a lower value indicates higher activity.

[2] = target: T1, Trx system (thioredoxin/thioredoxin reductase) (Homo sapiens, UniProt Q16881); assay: Thioredoxin/thioredoxin reductase insulin reduction assay; assay type: biochemical; conditions: for inhibition at 500 µM: compound at 500 μM, read-out: Inhib. (%) Trx Syst. at 500 μM
T1 sequence (Q16881 151-649 limits assumed): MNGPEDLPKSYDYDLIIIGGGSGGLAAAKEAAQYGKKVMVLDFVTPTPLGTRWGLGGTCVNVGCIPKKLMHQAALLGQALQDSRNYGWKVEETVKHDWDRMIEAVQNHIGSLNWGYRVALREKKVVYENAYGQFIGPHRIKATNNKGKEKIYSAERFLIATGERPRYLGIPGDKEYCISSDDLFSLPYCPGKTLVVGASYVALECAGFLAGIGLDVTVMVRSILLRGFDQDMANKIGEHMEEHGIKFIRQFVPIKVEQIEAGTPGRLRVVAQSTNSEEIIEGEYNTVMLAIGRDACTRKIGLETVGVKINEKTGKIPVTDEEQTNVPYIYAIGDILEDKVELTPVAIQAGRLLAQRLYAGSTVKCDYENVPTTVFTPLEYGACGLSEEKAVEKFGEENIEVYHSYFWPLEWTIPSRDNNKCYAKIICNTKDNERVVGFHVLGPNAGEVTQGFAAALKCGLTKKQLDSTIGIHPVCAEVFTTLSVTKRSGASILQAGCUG
Protocol: Thioredoxin/thioredoxin reductase inhibition was measured using the insulin reduction assay (Stevens, M. F. G., Pallis, M., Bradshaw, T. D., Westwell, A. D., Grundy, M., Russell, N, “Induction of apoptosis without redox catastrophe by thioredoxin-inhibitory compounds”, Biochem. Pharmacol. (2003) 66, 1695-1705). […] The first part of the assay involves TrxR reducing oxidized Trx via NADPH. The reduced Trx then reduces disulfide bonds in the insulin, leaving exposed thiol groups, as summarized by the Trx reaction scheme.
The addition of dithionitrobenzoic acid (DTNB) to the free thiol groups of the insulin cleaves the disulfide bond in the DTNB which gives rise to a yellow colour (DTNB reaction scheme). The yellow colour is observed under basic conditions due to the conjugation of electrons between the thiolate anion and the nitro group of thionitrobenzoic acid (TNB). The level of thioredoxin/thioredoxin reductase inhibitory activity is […] proportional to the intensity of the yellow colour.
Addition of DTNB to reduced insulin produces thionitrobenzoic acid (TNB) and a mixed insulin disulfide. DTNB has very little absorbance, but under mild basic conditions TNB forms an anion that gives an intense yellow colour at 412 nm.
Synthesized compounds were tested for thioredoxin/thioredoxin reductase activity using the thioredoxin/thioredoxin reductase insulin assay described above under the heading “Assays”. The compounds were also tested for antiproliferative activity using the MTT assay described above under the heading “Assays”. Theoretical C log P values for the compounds were calculated using ChemDraw. The C log P of a compound is the logarithm of the compound's partition coefficient between n-octanol and water log(coctanol/cwater) and represents a measure of the compound's hydrophilicity and hydrophobicity. […]

human T-cells [3] = assay: CFSE proliferation assay; assay type: cell-based; conditions: 2000 ng per mL
Text: Carboxyfluorescein diacetate succinimidyl ester (56a) (CFSE) is a cell permeable compound which readily enters the cell, upon which, the ester group is cleaved by esterases to produce a fluorescent compound (known as carboxyfluorescein succinimidyl ester (56b)) that is less cell permeable (see CFSE reaction scheme). As cells divide, the carboxyfluorescein succinimidyl ester (56b) is split equally between the daughter cells, which results in reduced carboxyfluorescein succinimidyl ester (56b) signal detection with each subsequent cell division (FIG. 2). The attenuation of the signal gives an indication of the proliferative ability of the cells.
For a compound to show good antiproliferative properties in the CFSE assay, the majority of the cells should remain in the parent state (as per division 0 in FIG. 2). […] As cell division occurs, the carboxyfluorescein succinimidyl ester (56b) is split equally between daughter cells, which results in attenuated signal detection.
CFSE labeled T-cells were treated with compound (33f) or control (no compound added). In the control experiment the majority of cells reached the fifth division (proliferation index of 5.62). […] The PI is the sum of the cells in all generations divided by the calculated number of the original parent cells.

human T-cells [4] = assay: Annexin V-Pe assay (apoptosis/necrosis)
Text: (§1) To determine if the analogues were causing apoptosis or necrosis, an Annexin V-Pe assay was used. […] The annexin V is attached to a fluorescent probe that is used for detection by flow cytometry. […] The assay is also used in conjugation with 7-aminoactinomycin D (7-AAD). […] As the plasma membrane becomes increasingly permeable, 7-AAD can move readily across the cell membrane and bind to cellular DNA, thereby providing a way of identifying cells that have lost their membrane integrity; however, when the cell is viable or undergoing early stages of apoptosis, it is impermeable to 7-AAD.

human T-cells [5] = tested on: human T-cells
Text: as §1

in vitro = conditions: human, Viable Cells (%)
Text: as §1

[6] = CCD-1106 KERTr keratinocytes, read-out: MTT GI50
[7] = insulin reduction assay, read-out: Trx System IC50

Structure (SMILES) | GI50 [1, 6] | inhibition at 500 µM [2] | also measured
Cc1ccc(S(=O)(=O)Nc2ccc(C(N)=O)cc2NS(=O)(=O)c2ccc(C)cc2)cc1 [(29), 3,4-bis-(toluene-4-sulfonylamino)benzamide] | 104 µM | 19.9% | –
Cc1ccc(S(=O)(=O)Nc2ccc(C(=N)NO)cc2NS(=O)(=O)c2ccc(C)cc2)cc1 [(21c), N-hydroxy-3,4-bis-(toluene-4-sulfonylamino)benzamidine] | 108 µM | 32.4% | –
COC(=O)c1ccc(NS(=O)(=O)c2ccc([N+](=O)[O-])cc2)c(NS(=O)(=O)c2ccc([N+](=O)[O-])cc2)c1 [(19a), methyl 3,4-bis-(4-nitrobenzenesulfonylamino)benzoate] | – | 53.3% | GI50 ([1]; CCD-1106, read-out: MTT GI50 (μM)): 11.2 µM; IC50 [2]: 475 µM
Cc1ccc(S(=O)(=O)Nc2ccc(NS(N)(=O)=O)cc2NS(=O)(=O)c2ccc(C)cc2)cc1 [(33c), 3,4-bis(toluene-4-sulfonylamino)phenylsulfamide] | 114 µM | 38.6% | –
COC(=O)c1ccc(NS(=O)(=O)c2ccc(C)cc2)c(NS(=O)(=O)c2ccc(C)cc2)c1 [(12), methyl 3,4-diamino-N,N-bis-(toluene-4-sulfonylamino)benzoate] | 4.1 µM | 30% | IC50 [2, 7]: 1360 µM
Cc1ccc(S(=O)(=O)Nc2ccc(-c3ccc(F)c(C#N)c3)cc2NS(=O)(=O)c2ccc(C)cc2)cc1 [(53), 3′,4′-bis-(toluene-4-sulfonylamino)-4-fluorobiphenyl-3-carbonitrile] | 0.156 µM | 71.1% | IC50 [2, 7]: 106 µM
Cc1ccc(S(=O)(=O)Nc2ccc(C(=O)NC(C)(C)C)cc2NS(=O)(=O)c2ccc(C)cc2)cc1 [(28), N-tert-butyl-3,4-bis-(toluene-4-sulfonylamino)benzamide] | 5.1 µM | 10% | –
COC(=O)c1ccc(NS(=O)(=O)c2ccc(OC)cc2)c(NS(=O)(=O)c2ccc(OC)cc2)c1 [(19d), methyl 3,4-bis-(4-methoxybenzenesulfonylamino)benzoate] | 5.2 µM | 14.6% | –
CCOC(=O)CN(CC(=O)OCC)Cc1ccc(NS(=O)(=O)c2ccc(C)cc2)c(NS(=O)(=O)c2ccc(C)cc2)c1 [(32), ethyl {[3,4-bis-(toluene-4-sulfonylamino)benzyl]-ethoxycarbonylmethyl-amino}acetate] | 9 µM | 58.1% | –
Cc1ccc(S(=O)(=O)Nc2ccc(NC(=O)c3ccco3)cc2NS(=O)(=O)c2ccc(C)cc2)cc1 [Compound (33f), N-(3,4-bis-(toluene-4-sulfonylamino)phenyl)-2-furamide] | 10.8 µM | 93.7% | division state of CFSE labeled T-cells (human T-cells [3]; control: majority reached the fifth division): the majority of cells remained in the parent state; proliferation index (PI) (human T-cells [3]; CFSE labeled T-cells, control 5.62): 1.36; IC50 [2, 7]: 37 µM; Early Apoptotic Cells (%) (human T-cells [4]; annexin V positive, 7-AAD negative, control 29): 31%; Late Apoptotic/Necrotic Cells (%) (human T-cells [4]; stain with both reagents, control 15): 13%; Viable Cells (%) (human T-cells [5]): 46%; viability (in vitro): 37%
Cc1ccc(S(=O)(=O)Nc2ccc(N)cc2NS(=O)(=O)c2ccc(C)cc2)cc1 [(33b), 3,4-bis(toluene-4-sulfonylamino)phenyl amine] | 48.9 µM | 31.6% | –
C=CC(=O)Nc1ccc(NS(=O)(=O)c2ccc(C)cc2)c(NS(=O)(=O)c2ccc(C)cc2)c1 [(39), N-[3,4-bis-(toluene-4-sulfonylamino)-phenyl]acrylamide] | 18.8 µM | 73.9% | IC50 [2, 7]: 156 µM
Cc1ccc(S(=O)(=O)Nc2ccc(CO)cc2NS(=O)(=O)c2ccc(C)cc2)cc1 [(36), (3,4-bis-(toluene-4-sulfonylamino)phenyl)methanol] | 19.1 µM | 50% | –
Cc1ccc(S(=O)(=O)Nc2ccc(C#N)cc2NS(=O)(=O)c2ccc(C)cc2)cc1 [(21b), 3,4-bis-(toluene-4-sulfonylamino)benzonitrile] | 4.7 µM | 58.4% | –
